System: 616215-338-R-J1-PDC complex spheroid growth, % test/control
Test: Anticancer human tumor 616215-338-R-J1-PDC patient-derived colon adenocarcinoma cell line growth inhibition [Asc]
Conditions: for IC50: curve of first compound; for viability, T/C: stronger effect = lower value
Description: Multicellular complex tumor spheroid response to apoptosis pathway targeting inhibitors Alrizomadlin, Pelcitoclax, and Dasminapant in combination with a variety of drugs and investigational agents in selected tumor cell lines
The MDM2 inhibitor alrizomadlin, the Bcl-2/Bcl-xL inhibitor pelcitoclax, and the IAPs inhibitor dasminapant were evaluated both individually and in combination with standard of care and investigational anticancer small molecules within a complex spheroid model of solid tumors. . Complex spheroids include a stromal component modeled by human endothelial cells (HUVEC) and fibroblasts modeled by human mesenchymal stem cells (MSCs). The concentration ranges selected for each drug and investigational agent were based upon clinically achievable concentrations if the clinical Cmax of the agent was known.
Compounds. The drugs and investigational agents: alrizomadlin (APG-115; NSC831270), pelcitoclax (APG-1252; NSC835773), dasminapant (APG-1387;NSC834197), TAK-243 (NSC785004), copanlisib (NSC809693), olaparib (NSC753686), talazoparib (NSC767125), cobimetinib (NSC 768068), eltanexor (KPT-8602, NSC 794443), abemaciclib (NSC 768073), sotorasib (NSC818433), adagrasib (NSC 831453), MRTX-1133 (NSC 836407), Iadademestat (ORY1001, NSC 806812), and RMC-4630 (NSC839698), were obtained from the NCI Developmental Therapeutics Program Chemical Repository. The FDA-approved anticancer drug set is available from the Developmental Therapeutics Program at https://dtp.cancer.gov/organization/dscb/obtaining/available plates.htm. […] The stock solutions were prepared in dimethyl sulfoxide (DMSO, Sigma-Aldrich, St. Louis, MO, cat. D2650) at 800-fold the tested concentration and stored at -70 degrees C prior to their use. All drugs and investigational agents were tested over a range starting from a high concentration at or near the clinical Cmax and decreasing in half-log increments. If the clinical Cmax for an agent had not been determined, the highest concentration tested was 10 microM.
The patient-derived cancer (PDC) cell lines include five colon adenocarcinomas: 186277-243-T-J2-PDC, 616215-338-R-J1-PDC, 439559-082-T-J2-PDC, 463943-066-T-J2-PDC, and 519858-162-T-J1-PDC; three pancreatic carcinomas: 323965-272-R-J2-PDC, 521955-158-R6-J3-PDC, and 521955-158-R2-J5-PDC; two uterine sarcomas: 327498-152-R-J2-PDC and 993429-296-R-J1-PDC; two rhabdomyosarcomas: 755483-174-R-J1-PDC and 772245-204-R-J1-PDC; two soft tissue sarcomas: 126254-015-R-J1-PDC and 494315-158-R-J1-PDC; two malignant fibrous histiocytomas: 317291-083-R-J1-PDC and 596521-263-R-J1-PDC; two breast carcinomas: 171881-019-R-J1-PDC and 885512-296-R-J2-PDC; and one ovarian carcinoma: 6556581-035-R-J-PDC were obtained from the NCI PDMR, (https://pdmr.cancer.gov). The established cell lines HSSY-2 synovial sarcoma (RRID:CVCL 8719), SYO-1 synovial sarcoma (RRID:CVCL_7146), MPNST malignant peripheral neural sheath tumor were obtained from the Sloan Kettering Institute. The following established cell lines were purchased from the American Type Culture Collection (ATCC, Manassas, VA), Sor the received from the NCI repository:, PANC-1 pancreatic carcinoma (CRL-1469, RRID:CVCL_0480), OVCAR-5 ovarian carcinoma (RRID:CVCL_1628), OVCAR-8 ovarian carcinoma (RRID:CVCL_1629), , MCF-7 breast carcinoma (CRL-12584, RRID:CVCL_0031), MDA-MB-231 breast carcinoma (CRL-12532, RRID:CVCL_0062), NCI-H1876 small cell lung carcinoma (CRL-5902, RRID:CVCL_1503), NCI-H510A small cell lung carcinoma (HTB-184, RRID:CVCL_1565), NCI-H1417 (CRL-5869, RRID:CVCL_1469), and NCI-H196 small cell lung carcinoma (CRL-5823, RRID:CVCL_1509). Dr. Peter Houghton (Greehey Children's Cancer Research Institute, University of Texas Health Science Center, San Antonio, TX) provided Rh-18 rhabdomyosarcoma (RRID:CVCL_1659). Pooled donor human umbilical vein endothelial cells (HUVEC, Lonza, cat. CC-2519) and human mesenchymal stem cells (hMSC, Lonza, cat. PT-2501) were purchased from Lonza (Walkersville, MD).
Cell Culture. […]

[1] = second compound 0.03 µM, first compound 0.00316 µM
[2] = second compound 0.03 µM, first compound 0.01 µM
[3] = second compound 0.03 µM, first compound 0.0316 µM
[4] = second compound 0.03 µM, first compound 0.1 µM
[5] = second compound 0.0949 µM, first compound 0.00316 µM
[6] = second compound 0.0949 µM, first compound 0.01 µM
[7] = second compound 0.0949 µM, first compound 0.0316 µM
[8] = second compound 0.0949 µM, first compound 0.1 µM
[9] = second compound 0.3 µM, first compound 0.00316 µM
[10] = second compound 0.3 µM, first compound 0.01 µM
[11] = second compound 0.3 µM, first compound 0.0316 µM
[12] = second compound 0.3 µM, first compound 0.1 µM
[13] = second compound 0.949 µM, first compound 0.00316 µM
[14] = second compound 0.949 µM, first compound 0.01 µM
[15] = second compound 0.949 µM, first compound 0.0316 µM
[16] = second compound 0.949 µM, first compound 0.1 µM
[17] = second compound 3 µM, first compound 0.00316 µM
[18] = second compound 3 µM, first compound 0.01 µM
[19] = second compound 3 µM, first compound 0.0316 µM
[20] = second compound 3 µM, first compound 0.1 µM
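Also: spheroids exposed to agents for seven days before readout.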
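For viability, T/C in this document: 100% = DMSO vehicle control viability.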

`CCN1CCN(Cc2ccc(Nc3ncc(F)c(-c4cc(F)c5nc(C)n(C(C)C)c5c4)n3)nc2)CC1` + CCN1C(C(=O)NC23CCC(C(=O)O)(CC2)CC3)C(c2cccc(Cl)c2F)C2(C(=O)Nc3cc(Cl)ccc32)C12CCCCC2 was tested, and the IC50 (second compound 0.03 µM) was over 1000 nM, the IC50 (second compound 0.0949 µM) was over 1000 nM and the IC50 (second compound 0.3 µM) was over 1000 nM. For the same compound, the IC50 (second compound 0.949 µM) was over 1000 nM, the IC50 (second compound 3 µM) was 150 nM and the viability, T/C [1] was 102%. It also gave a viability, T/C [2] of 99.2%, a viability, T/C [3] of 104% and a viability, T/C [4] of 108%. It also gave a viability, T/C (second compound 0.03 µM, first compound 0.316 µM) of 108%, a viability, T/C (second compound 0.03 µM, first compound 1 µM) of 116% and a viability, T/C [5] of 93.6%. The viability, T/C [6] was 96%, the viability, T/C [7] was 97.2% and the viability, T/C [8] was 80.5%. For the same compound, the viability, T/C (second compound 0.0949 µM, first compound 0.316 µM) was 88.2%, the viability, T/C (second compound 0.0949 µM, first compound 1 µM) was 75.2% and the viability, T/C [9] was 66.2%. For the same compound, the viability, T/C [10] was 67%, the viability, T/C [11] was 63.3% and the viability, T/C [12] was 58.3%. The viability, T/C (second compound 0.3 µM, first compound 0.316 µM) was 69.5%, the viability, T/C (second compound 0.3 µM, first compound 1 µM) was 59.9% and the viability, T/C [13] was 60.5%. The viability, T/C [14] was 66.6%, the viability, T/C [15] was 72.1% and the viability, T/C [16] was 68.9%. For the same compound, the viability, T/C (second compound 0.949 µM, first compound 0.316 µM) was 83.6%, the viability, T/C (second compound 0.949 µM, first compound 1 µM) was 52% and the viability, T/C [17] was 48.2%. It also gave a viability, T/C [18] of 52.4%, a viability, T/C [19] of 48.3% and a viability, T/C [20] of 56.4%. It also gave a viability, T/C (second compound 3 µM, first compound 0.316 µM) of 54.7% and a viability, T/C (second compound 3 µM, first compound 1 µM) of 42.2%.

`NC(=O)C(=Cn1cnc(-c2cc(C(F)(F)F)cc(C(F)(F)F)c2)n1)c1cncnc1` + CCN1C(C(=O)NC23CCC(C(=O)O)(CC2)CC3)C(c2cccc(Cl)c2F)C2(C(=O)Nc3cc(Cl)ccc32)C12CCCCC2 showed an IC50 (second compound 0.03 µM) of over 300 nM, an IC50 (second compound 0.0949 µM) of 77.4 nM and an IC50 (second compound 0.3 µM) of 6.42 nM. It also gave an IC50 (second compound 0.949 µM) of under 0.949 nM, an IC50 (second compound 3 µM) of under 0.949 nM and a viability, T/C (second compound 0.03 µM, first compound 0.000949 µM) of 89.7%. It also gave a viability, T/C (second compound 0.03 µM, first compound 0.003 µM) of 93.4%, a viability, T/C (second compound 0.03 µM, first compound 0.00949 µM) of 88.1% and a viability, T/C (second compound 0.03 µM, first compound 0.03 µM) of 83.7%. It also gave a viability, T/C (second compound 0.03 µM, first compound 0.0949 µM) of 73.8%, a viability, T/C (second compound 0.03 µM, first compound 0.3 µM) of 56.2% and a viability, T/C (second compound 0.0949 µM, first compound 0.000949 µM) of 84.4%. The viability, T/C (second compound 0.0949 µM, first compound 0.003 µM) was 85.4%, the viability, T/C (second compound 0.0949 µM, first compound 0.00949 µM) was 75.5% and the viability, T/C (second compound 0.0949 µM, first compound 0.03 µM) was 61.3%. The viability, T/C (second compound 0.0949 µM, first compound 0.0949 µM) was 48.8%, the viability, T/C (second compound 0.0949 µM, first compound 0.3 µM) was 28.9% and the viability, T/C (second compound 0.3 µM, first compound 0.000949 µM) was 60%. For the same compound, the viability, T/C (second compound 0.3 µM, first compound 0.003 µM) was 57.2%, the viability, T/C (second compound 0.3 µM, first compound 0.00949 µM) was 48.2% and the viability, T/C (second compound 0.3 µM, first compound 0.03 µM) was 32.6%. The viability, T/C (second compound 0.3 µM, first compound 0.0949 µM) was 24.9%, the viability, T/C (second compound 0.3 µM, first compound 0.3 µM) was 6.51% and the viability, T/C (second compound 0.949 µM, first compound 0.000949 µM) was 49.2%. For the same compound, the viability, T/C (second compound 0.949 µM, first compound 0.003 µM) was 48.9%, the viability, T/C (second compound 0.949 µM, first compound 0.00949 µM) was 35.5% and the viability, T/C (second compound 0.949 µM, first compound 0.03 µM) was 11.2%. The viability, T/C (second compound 0.949 µM, first compound 0.0949 µM) was 3.85%, the viability, T/C (second compound 0.949 µM, first compound 0.3 µM) was 0.63% and the viability, T/C (second compound 3 µM, first compound 0.000949 µM) was 39.3%. It also gave a viability, T/C (second compound 3 µM, first compound 0.003 µM) of 32.4%, a viability, T/C (second compound 3 µM, first compound 0.00949 µM) of 17.5% and a viability, T/C (second compound 3 µM, first compound 0.03 µM) of 3.73%. It also gave a viability, T/C (second compound 3 µM, first compound 0.0949 µM) of 1.87% and a viability, T/C (second compound 3 µM, first compound 0.3 µM) of 0.41%.

With `NC1CCC(NC2CC2c2ccccc2)CC1` (stereo not given) + CCN1C(C(=O)NC23CCC(C(=O)O)(CC2)CC3)C(c2cccc(Cl)c2F)C2(C(=O)Nc3cc(Cl)ccc32)C12CCCCC2 the IC50 (second compound 0.03 µM) was over 100 nM, the IC50 (second compound 0.0949 µM) was over 100 nM and the IC50 (second compound 0.3 µM) was over 100 nM. The IC50 (second compound 0.949 µM) was over 100 nM, the IC50 (second compound 3 µM) was over 100 nM and the viability, T/C (second compound 0.03 µM, first compound 0.000316 µM) was 106%. For the same compound, the viability, T/C (second compound 0.03 µM, first compound 0.001 µM) was 98.2%, the viability, T/C [1] was 99.7% and the viability, T/C [2] was 104%. The viability, T/C [3] was 100%, the viability, T/C [4] was 103% and the viability, T/C (second compound 0.0949 µM, first compound 0.000316 µM) was 95.5%. For the same compound, the viability, T/C (second compound 0.0949 µM, first compound 0.001 µM) was 100%, the viability, T/C [5] was 91.3% and the viability, T/C [6] was 91.7%. It also gave a viability, T/C [7] of 93.8%, a viability, T/C [8] of 95.2% and a viability, T/C (second compound 0.3 µM, first compound 0.000316 µM) of 68.9%. The viability, T/C (second compound 0.3 µM, first compound 0.001 µM) was 67.6%, the viability, T/C [9] was 73% and the viability, T/C [10] was 65.9%. For the same compound, the viability, T/C [11] was 62.4%, the viability, T/C [12] was 68% and the viability, T/C (second compound 0.949 µM, first compound 0.000316 µM) was 73.4%. For the same compound, the viability, T/C (second compound 0.949 µM, first compound 0.001 µM) was 72.2%, the viability, T/C [13] was 83.7% and the viability, T/C [14] was 71.7%. It also gave a viability, T/C [15] of 70.1%, a viability, T/C [16] of 72.7% and a viability, T/C (second compound 3 µM, first compound 0.000316 µM) of 54.6%. It also gave a viability, T/C (second compound 3 µM, first compound 0.001 µM) of 58.9%, a viability, T/C [17] of 58.2% and a viability, T/C [18] of 62.9%. The viability, T/C [19] was 51% and the viability, T/C [20] was 54.3%.

From PubChem BioAssay AID1963448 (Molecular Pharmacology Branch, DTP, NCI, 2024)
